Our source for the TGI and GI50 values is PubChem BioAssay (NCI).

Test systems include RXF 393 renal; SNB-78 CNS; OVCAR-3 ovarian; M19-MEL melanoma; SF-268 CNS; UO-31 renal; M14 melanoma; SR leukemia; KM12 colon; HS 578T breast.
Common to all, as to assay: NCI tumour cell line growth inhibition, 48 h

Where “and” joins values, the source holds several entries; their conditions need not be identical. Equal entries are not always repeated.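 Values below derive from 48-hour exposures of cells grown in 96-well plates, with endpoints linearly interpolated between the two concentrations bracketing the appropriate inhibition level. At the GI50, growth is halved. TGI: total growth inhibition.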 A value given as a limit tells only on which side of the number the result lay.

Regarding `COc1ccc(/C=C/c2nc(=S)[nH][nH]2)cc1`, the TGI in the test on RXF 393 renal, with SNB-78 CNS, in the test with OVCAR-3 ovarian, in the test with M19-MEL melanoma, in the test on SF-268 CNS and in the test on UO-31 renal was greater than 100 µM in each case. Moreover, the TGI in the test on M14 melanoma and in the test with SR leukemia was greater than 100 µM throughout.

For the compound `NS(=O)(=O)c1ccc(NC(=O)CC(=O)Nc2ccc(S(N)(=O)=O)cc2)cc1`, the TGI in the test on SNB-78 CNS, with OVCAR-3 ovarian, with M19-MEL melanoma, in the test with SF-268 CNS, with UO-31 renal and in the test on M14 melanoma was greater than 100 µM each time. Besides, the TGI in the test with SR leukemia was greater than 100 µM.

For the compound `Fc1ccc(F)c(C2SCc3nc4ccccc4n32)c1` (stereo unspecified), the TGI in the test with RXF 393 renal, with SNB-78 CNS, in the test on OVCAR-3 ovarian, with KM12 colon, in the test with M19-MEL melanoma and with SF-268 CNS was greater than 100 µM each time. For the same compound, the TGI in the test with UO-31 renal, in the test on M14 melanoma and in the test with SR leukemia was greater than 100 µM throughout.

Consider `CC(=O)OCC(OC(C)=O)C(OC(C)=O)C(OC(C)=O)C(=O)CNn1c(-c2ccccc2)nc2ccc(Br)cc2c1=O` (stereo unspecified), for which the TGI in the test on RXF 393 renal, in the test with SNB-78 CNS, with OVCAR-3 ovarian, in the test on KM12 colon, with M19-MEL melanoma and in the test on SF-268 CNS was greater than 100 µM throughout. Besides, the TGI in the test on UO-31 renal, in the test with M14 melanoma and with SR leukemia was greater than 100 µM throughout.

Take `Cc1c(C2Cc3ccccc3N2C(=O)/C=C\C(=O)O)c2ccccc2n1C` (stereo unspecified): the TGI in the test with RXF 393 renal is 33.1 µM; with SNB-78 CNS it was greater than 100 µM; with OVCAR-3 ovarian it was 43.1 µM; with KM12 colon it was 35.6 µM; in the test on M19-MEL melanoma, 52.3 µM; in the test with SF-268 CNS it was 35.9 µM. The TGI in the test with UO-31 renal is greater than 100 µM; with M14 melanoma, 76.2 µM; in the test on SR leukemia, 85.8 µM.

On to `CCc1ccc(/C(C)=N/NC(N)=S)cc1`, for which the TGI in the test on RXF 393 renal, with SNB-78 CNS, in the test with OVCAR-3 ovarian, in the test with KM12 colon, with M19-MEL melanoma and in the test with SF-268 CNS was greater than 100 µM each time. Further, the TGI with UO-31 renal, in the test on M14 melanoma and in the test with SR leukemia was greater than 100 µM each time.

Regarding `CCOC(=O)CC1=NC(=Nc2cc(Cl)ccc2Cl)SC1`, the TGI in the test on RXF 393 renal, with SNB-78 CNS, with OVCAR-3 ovarian, with KM12 colon, with M19-MEL melanoma and in the test on SF-268 CNS was greater than 100 µM each time. For the same compound, the TGI in the test on UO-31 renal and with M14 melanoma was greater than 100 µM each time.

Regarding `CCc1ccccc1-n1c2nc(=O)n(C)c(=O)c-2nc2ccccc21`, the TGI with RXF 393 renal was 30 µM; with SNB-78 CNS, 38.5 µM; in the test on OVCAR-3 ovarian it was 6.79 µM; in the test on KM12 colon, 34.2 µM; in the test with M19-MEL melanoma, 3.69 µM; in the test with SF-268 CNS, 24 µM. Besides, the TGI in the test with UO-31 renal stood at 48.2 µM; in the test on M14 melanoma, 20.8 µM.

Regarding `CN(C)c1nc(N(C)C)n2nc(-c3ccccc3[N+](=O)[O-])nc2n1`, the TGI in the test on RXF 393 renal, in the test on SNB-78 CNS, with OVCAR-3 ovarian, in the test on KM12 colon, with M19-MEL melanoma and with SF-268 CNS was greater than 100 µM in each case. The TGI with UO-31 renal, in the test with M14 melanoma and in the test with SR leukemia was greater than 100 µM in each case.

As to `CC1=Nc2c([nH]c(=S)[nH]c2=O)NC(c2ccc(Cl)c(Cl)c2)C1` (stereo unspecified), the TGI in the test on RXF 393 renal is 38.2 µM; in the test with SNB-78 CNS it was greater than 100 µM; in the test with OVCAR-3 ovarian it was 38.3 µM; with KM12 colon, 32.3 µM; in the test on M19-MEL melanoma it was 34.2 µM; in the test with SF-268 CNS it was greater than 93.1 µM. Besides, the TGI in the test with UO-31 renal is 89.6 µM; in the test with M14 melanoma, 31.3 µM; in the test on SR leukemia it was greater than 100 µM.

Consider `CCOC(=O)C1=C(NC(C)(C)C)OCC1=O`, for which the TGI in the test with SNB-78 CNS, with OVCAR-3 ovarian, in the test on KM12 colon, in the test on SF-268 CNS, in the test with UO-31 renal and in the test with M14 melanoma was greater than 100 µM each time. This compound came in with a TGI with SR leukemia greater than 100 µM.

With `CC(C)CC(CNC(Cc1ccc(Cl)cc1)C(N)=O)NC(=O)C(Cc1cnc[nH]1)NC(=O)CNC(=O)C(NC(=O)C(C)NC(=O)C(Cc1c[nH]c2ccccc12)NC(=O)C(CCC(=O)O)NC(=O)C(N)Cc1ccccc1)C(C)C` (stereo unspecified), the TGI in the test with RXF 393 renal, in the test on SNB-78 CNS, in the test on OVCAR-3 ovarian, in the test with KM12 colon, with M19-MEL melanoma and in the test on UO-31 renal was greater than 133 µM each time. In the test with SR leukemia, this compound came in with a TGI greater than 133 µM.

Regarding `O=C(O)c1ccc(N=Nc2cc(S(=O)(=O)O)c3cccnc3c2O)cc1`, the TGI with RXF 393 renal, in the test with SNB-78 CNS, in the test on OVCAR-3 ovarian, in the test on KM12 colon, in the test on M19-MEL melanoma and with SF-268 CNS was greater than 100 µM throughout. In addition, the TGI in the test with UO-31 renal and in the test on SR leukemia was greater than 100 µM in each case.

Turning to `O=C(CCCNC(=O)OCc1ccccc1)OCc1ccc2c(c1)C(=O)c1ccccc1C2=O`, the TGI with RXF 393 renal is 48.5 µM; in the test with SNB-78 CNS, greater than 94.3 µM; in the test with OVCAR-3 ovarian, greater than 100 µM; in the test with KM12 colon, greater than 100 µM; with SF-268 CNS, greater than 100 µM; in the test with UO-31 renal, greater than 100 µM. Also, the TGI in the test on M14 melanoma and in the test with SR leukemia was greater than 100 µM throughout.

Regarding `O=C1C=CN(C2OC(CO)C(O)C2O)C(=O)C1` (stereo unspecified), the GI50 in the test on RXF 393 renal was 514 µM; with KM12 colon, 22.3 µM and 39.6 µM; with SF-268 CNS, 172 µM and 231 µM; with UO-31 renal it was 26.7 µM. Also, the TGI with RXF 393 renal was 625 µM and > 2500 µM; with OVCAR-3 ovarian, greater than 1870 µM; with KM12 colon, 625 µM and > 2500 µM; in the test with M19-MEL melanoma, 1370 µM; with SF-268 CNS, 625 µM and > 2500 µM; with UO-31 renal, 625 µM and > 2500 µM. Moreover, the TGI was greater than 2500 µM in the test on M14 melanoma, greater than 747 µM in the test with HS 578T breast and greater than 2500 µM with SR leukemia.

For the compound `Cc1[nH]c(=O)nc(CC(O)(c2ccccc2)c2ccccc2)c1-c1ccccc1`, the TGI in the test on RXF 393 renal, with SNB-78 CNS, with OVCAR-3 ovarian, in the test with KM12 colon, in the test with M19-MEL melanoma and in the test on SF-268 CNS was greater than 100 µM each time. Moreover, the TGI with UO-31 renal and with M14 melanoma was greater than 100 µM each time.

In the case of `O=C1OC(c2ccccc2)=N/C1=C\c1c(O)cc(O)cc1O`, the TGI in the test with RXF 393 renal, in the test on SNB-78 CNS, with OVCAR-3 ovarian, in the test on KM12 colon, in the test on M19-MEL melanoma and in the test with SF-268 CNS was greater than 100 µM in each case. Also, the TGI in the test on UO-31 renal and with M14 melanoma was greater than 100 µM each time.

In the case of `COc1ccc(CCNCc2cccc(OC)c2OC)cc1OC`, the TGI in the test with RXF 393 renal, in the test with SNB-78 CNS, in the test with OVCAR-3 ovarian, in the test on KM12 colon, in the test with M19-MEL melanoma and with SF-268 CNS was greater than 100 µM in each case. Besides, the TGI in the test on UO-31 renal and with M14 melanoma was greater than 100 µM each time.

As for `O=C(/C=C/c1c(O)ccc2ccccc12)c1cccc2ccccc12`, the TGI with RXF 393 renal was greater than 100 µM; with SNB-78 CNS, greater than 100 µM; with OVCAR-3 ovarian, greater than 100 µM; in the test with KM12 colon, greater than 100 µM; in the test with M19-MEL melanoma it was 71.9 µM; in the test on SF-268 CNS, greater than 100 µM. In addition, the TGI in the test on UO-31 renal, with M14 melanoma and in the test on SR leukemia was greater than 100 µM each time.

Consider `OCC(O)COc1c(Cl)ccc(Cl)c1Cl` (stereo unspecified), for which the TGI with RXF 393 renal, with SNB-78 CNS, in the test on OVCAR-3 ovarian, in the test with KM12 colon, with M19-MEL melanoma and with SF-268 CNS was greater than 100 µM in each case. The TGI in the test with UO-31 renal, in the test on M14 melanoma and in the test with SR leukemia was greater than 100 µM in each case.

Turning to `O=C(CCc1ccccc1)On1nnc2ccccc2c1=O`, the TGI with RXF 393 renal, in the test on SNB-78 CNS, in the test with OVCAR-3 ovarian, in the test on KM12 colon, in the test with M19-MEL melanoma and with SF-268 CNS was greater than 100 µM each time. Besides, the TGI with UO-31 renal, with M14 melanoma and with SR leukemia was greater than 100 µM each time.

In the case of `COc1ccc(/C(Cl)=C(\C=O)c2ccc(Br)cc2)cc1OC`, the TGI in the test with RXF 393 renal, in the test on SNB-78 CNS, with OVCAR-3 ovarian, with KM12 colon, in the test with M19-MEL melanoma and with SF-268 CNS was greater than 100 µM throughout. In addition, the TGI in the test with UO-31 renal and in the test with M14 melanoma was greater than 100 µM in each case.

For `C[C@H]1COC2(c3ccccc3)CCC(=O)N12` (stereo partly specified), the TGI with RXF 393 renal, in the test with SNB-78 CNS, with OVCAR-3 ovarian, with KM12 colon, in the test on M19-MEL melanoma and in the test on SF-268 CNS was greater than 100 µM each time. Also, the TGI in the test on SR leukemia was greater than 100 µM.

As to `N#CCC(=O)N/N=C1/C(=O)NC(=O)C(=O)C1c1nc2ccccc2s1` (stereo unspecified), the TGI in the test on RXF 393 renal, with SNB-78 CNS, in the test on OVCAR-3 ovarian, in the test on M19-MEL melanoma, in the test with SF-268 CNS and in the test on UO-31 renal was greater than 100 µM each time. In addition, the TGI with M14 melanoma and in the test on SR leukemia was greater than 100 µM throughout.

Regarding `COC(=O)C1=C(c2cc(OC)c(OC)c(OC)c2)OC(c2cc(OC)c(OC)c(OC)c2)C1COC(C)=O` (stereo unspecified), the TGI in the test on RXF 393 renal, in the test with SNB-78 CNS, with OVCAR-3 ovarian, in the test with KM12 colon, with M19-MEL melanoma and with SF-268 CNS was greater than 100 µM each time. In addition, the TGI in the test with UO-31 renal is greater than 100 µM; in the test with M14 melanoma, greater than 100 µM; in the test with SR leukemia it was 52.2 µM.
